# Measurements published in patent US7012078B2, “2-aminopyridines containing fused ring substituents” (Pfizer Inc., priority 1997, dated 2006).
# Where a name gives a salt, the structure may show the parent alone.
row,Structure (SMILES),melting point
1,"Nc1cccc(-c2ccc(OC3CN(Cc4ccccn4)C3)c3ccccc23)n1 (as salt: hydrochloride) [Example 74, 6-[4-(1-Pyridin-2-ylmethyl-azetidin-3-yloxy)-naphthalen-1-yl]-pyridin-2-ylamine]",97 to 120 °C
2,"CN1CC(Oc2ccc(-c3cccc(N)n3)c3ccccc23)C1 (as salt: hydrochloride) [Example 75, 6-[4-(N-methyl-azetidin-3-yloxy)-naphthalen-1-yl]-pyridin-2-ylamine]",240 to 255 °C
3,"CC(C)N1CC(Oc2ccc(-c3cccc(N)n3)c3ccccc23)C1 (as salt: hydrochloride) [Example 76, 6-[4-(N-Isopropyl-azetidin-3-yloxy)-naphthalen-1-yl]-pyridin-2-ylamine]",120 to 135 °C
4,"Nc1cccc(-c2ccc(OCC3CCN3)c3ccccc23)n1 (centres unmarked) (as salt: salt) [Example 71, 6-[4-(Azetidin-2-ylmethoxy)-naphthalen-1-yl]-pyridin-2-ylamine]",135 to 150 °C
5,"COc1cc2c(cc1OC)CN(CCc1ccc(-c3cccc(N)n3)c3ccccc13)CC2 [Example 4, 6-{4-[2-(6,7-Dimethoxy-3,4-dihydro-1H-isoquinolin-2-yl)-ethyl]-naphthalen-1-yl}-pyridin-2-ylamine]",172 to 176 °C
